Experimental data as given in PMC9741454, “Selective Structural Derivatization of Flavonoid Acetamides Significantly Impacts Their Bioavailability and Antioxidant Properties” (Molecules, 2022).
“And” between values parts separate entries of the source, which are not always exact repeats. Identical values can stand only once.

Tests used:
[1] = In vitro bioavailability by dialysis tubing procedure (pepsin then pancreatin digestion); format: in vitro ADME; conditions: for % bioavailability after phase 1 (pepsin digestion) / % bioavailability after phase 2 (pancreatin digestion): in vitro, dialysis tubing, average of three trials ± SD; for % bioavailability after phase 1 (pepsin digestion): 2 h pepsin digestion, pH 1.0, 37 °C; for % bioavailability after phase 2 (pancreatin digestion): 4 h pancreatin digestion, pH 7.0, 37 °C; for Total in vitro bioavailability: sum of phase 1 and phase 2 % bioavailability; for % bioavailability after phase 1 (pepsin digestion): tested at 69.8 µM
Protocol: The in vitro bioavailability studies of the flavonoid acetamide derivatives were done in simulated gastric and intestinal fluids using the dialysis tubing procedure, as previously reported. The procedure involves two consecutive digestion stages: phase 1, which is a 2-h pepsin-based digestion followed by phase 2, which is a 4-h pancreatin based digestion. This procedure was adopted from Chimento, Adele, et al. (2013) and Grande, Fedora, et al. (2016).
Phase 1: Pepsin digestion, 2 h
The flavonoid acetamide derivatives were dissolved in dimethyl sulfoxide (DMSO) to achieve a concentration of 1.00 × 10^−3 M. The porcine pepsin was prepared to achieve 2.40 × 10^4 U porcine pepsin per 1.00 × 10^−3 L of solution. The sodium cholate solution was prepared to attain a final concentration of 2.00 w/v% while hydrochloric acid was prepared at a concentration of 8.50 × 10^−1 N, for immediate use.
The pepsin digestion phase was completed in 120 min. Into an oven dried test tube, a 1.00 mL of the newly prepared porcine pepsin solution was added, followed by 300 µL of the flavonoid acetamide solution. These two solutions were mixed prior to the addition of 3.00 mL of a fresh batch of the sodium cholate solution. The resultant solution was appropriately mixed and transferred into a dialysis tubing, which was subsequently sealed on both ends. The dialysis tubing was immersed into a freshly prepared 0.85 N hydrochloric acid solution (pH 1.0). The flask and its contents were incubated in a shaking water bath at a regulated temperature of 37 ± 0.5 °C. After 120 min, 3.00 mL of the liquid in the flask was obtained for UV-Vis analysis. The dialysis tubing was carefully recovered and readied for the second stage of the experiment, phase 2. Each sample experiment was done in triplicates.
Phase 2: Pancreatin digestion, 4 h
The following solutions were prepared for immediate use: a solution containing 8.00 × 10^−1 N sodium bicarbonate with […] of porcine pancreatin per 1.00 mL of solution. The dialysis tubing recovered following the pepsin digestion was carefully opened on one end and for the addition of […] of esterase and 1.30 mL of the fresh batch of the NaHCO3 solution. These contents were appropriately mixed, and the dialysis tubing was suitably sealed and immersed in a flask with PBS buffer (at pH 7.0). The flask was incubated for 4 h, in a shaking water bath at a regulated temperature of 37 ± 0.5 °C. At the end of the experiment, a 3.00 mL sample of the liquid in the flask was obtained for UV-Vis analysis. All sample experiments in this phase were done in triplicates.
The calibration curve for each flavonoid acetamide derivative was prepared at both pH 1.0 and pH 7.0. The triplicate samples obtained from both phase 1 and phase 2 of the digestions were characterized using UV-Vis; the data obtained was applied to the equations obtained from the calibration curves to calculate the amount of the flavonoid acetamide derivatives in the recovered samples. The percentage (%) of the recovered flavonoid acetamide derivative for each sample after both pepsin digestion (phase 1) and pancreatin digestion (phase 2) was calculated relative to the total flavonoid content used. Thus, the (%) bioavailability was determined from Equation (1) below. (1) % Bioavailability=Recovered Content/Total Content×100
The total in vitro bioavailability was defined as the sum of the % bioavailability after phase 1 and % bioavailability after phase 2 of the digestion, as shown in Equation (2). The final reported in vitro bioavailability value was the average of the three trials ± the standard deviation. (2) Total Bioavailability=phase 1 bioavailability+phase 2 bioavailability
The bioavailability of the flavonoid acetamides was determined using our previously reported in vitro dialysis tubing procedure. […]

[2] = DPPH free radical scavenging assay; conditions: relative IC50, 30 min in the dark, absorbance at 517 nm, methanolic DPPH
Protocol: The stock solutions of the flavonoid acetamide derivatives were prepared in dimethyl sulfoxide. A fresh batch of 50 µM DPPH radical solution was prepared in methanol. The DPPH free radical scavenging activities of the flavonoid acetamide derivatives were determined using our previously reported literature procedure.
Into an amber vial, 1.00 × 10^2 µL solution of the flavonoid acetamide derivative in dimethyl sulfoxide was added into a 3.00 × 10^3 µL of a fresh batch of methanolic DPPH solution. This reaction mixture was incubated, away from light, for half an hour. The absorbance of the resultant solution was read on a UV-Vis spectrophotometer, λmax = 517 nm. This experiment was done across several concentrations to obtain the concentration-based antioxidant activity data which was subsequently used to calculate the relative half-maximal inhibitory concentration (IC50) values.
Given the observed variation of the stability of the DPPH free radical across different solvent vehicles, the stability of the DPPH free radicals was established in both methanol and dimethyl sulfoxide solvents. The percentage DPPH free radical scavenging activity of the flavonoid acetamide derivatives was computed against dimethyl sulfoxide, as per Equation (3). (3) % DPPH RSA=Absorbance of control−Absorbance of sample /Absorbance of control×100
Absorbance control is the absorbance of the blank methanolic DPPH sample with DMSO. The absorbance values were obtained at λmax = 517 nm.
The % RSA obtained was plotted and used to obtain the relative half-maximal inhibitory concentration (IC50) values, which were double confirmed using verified online computational tools.
The 2,2-diphenyl-1-picrylhydrazyl (DPPH) assay was used to evaluate the free radical scavenging capacity of the flavonoid acetamide derivatives. This assay is based on the colorimetric quantification of the DPPH free radicals. The reaction of the DPPH radicals with an antioxidant compound results in the loss of the DPPH free radical properties. The loss of the DPPH free radical properties is identifiable through a color change; a discoloration marked by the formation of a yellow color from the initial violet color. Slight antioxidant activity may be visually imperceptible; such a change may still be monitored spectrophotometrically through UV-Vis analysis at λmax = 517 [40, 44, 45].
The ability of the flavonoid acetamide derivatives to scavenge the DPPH free radicals is influenced by the concentration of both the flavonoid acetamide derivative and the DPPH free radicals, the reaction time, and presence of light during the reaction. The reaction time was set at 30 min and the concentration of the DPPH free radicals was […]. The concentration of the flavonoid acetamide derivatives was varied and the experiment was carried out in the dark. The actual concentration of the DPPH free radical before the addition of the flavonoid acetamide derivative was used as the standard for the purposes of the estimation of the DPPH free radical scavenging effect. The decrease in the DPPH free radical concentration upon the addition of the flavonoid acetamide derivative was used to calculate the antioxidant activity of the flavonoid acetamide derivatives. Thus, the greater the decrease in the DPPH free radical concentration, the higher the antioxidant activity. The antioxidant activity was expressed as the % RSA. […]

Row | SMILES | % bioavailability after phase 1 (pepsin digestion) [1] | % bioavailability after phase 2 (pancreatin digestion) [1] | Total in vitro bioavailability [1] | IC50 [2]
1 | NC(=O)COc1cc(O)c2c(=O)c(OCC(N)=O)c(-c3ccc(OCC(N)=O)c(OCC(N)=O)c3)oc2c1 [Compound 4, 2,2′-((4-(3,7-bis(2-amino-2-oxoethoxy)-5-hydroxy-4-oxo-4H-chromen-2-yl)-1,2-phenylene)bis(oxy))diacetamide] | 6.70% and 6.70 ± 0.03% | 9.26% and 9.26 ± 0.05% | 15.97% and 15.97 ± 0.04% | 31.5 µM
2 | CCOC(=O)COc1cc(OCC(N)=O)cc2oc(-c3ccc(OCC(N)=O)c(OCC(N)=O)c3)c(OCC(N)=O)c(=O)c12 [Compound 5, ethyl 2-((3,7-bis(2-amino-2-oxoethoxy)-2-(3,4-bis(2-amino-2-oxoethoxy)phenyl)-4-oxo-4H-chromen-5-yl)oxy)acetate] | 11.52% and 11.52 ± 0.02% | 13.14% and 13.14 ± 0.01% | 24.66% and 24.66 ± 0.01% | 198 µM
3 | NC(=O)COc1cc(OCC(N)=O)c2c(=O)c(OCC(N)=O)c(-c3ccc4c(c3)OCCO4)oc2c1 [Compound 7, 2,2′,2″-((2-(2,3-dihydrobenzo[b][1,4]dioxin-6-yl)-4-oxo-4H-chromene-3,5,7-triyl)tris(oxy))triacetamide] | 16.11% and 16.11 ± 0.11% | 22.01% and 22.01 ± 0.21% | 38.12 ± 0.16% and 38.12% | 59.2 µM

Further molecules by falling IC50 [2], results first:

Row | % bioavailability after phase 1 (pepsin digestion) [1] | % bioavailability after phase 2 (pancreatin digestion) [1] | Total in vitro bioavailability [1] | IC50 [2] | SMILES
4 | 9.98% and 9.98 ± 0.10% | 9.30% and 9.30 ± 0.09% | 19.28% and 19.28 ± 0.19% | 93.7 µM | NC(=O)COc1ccc(-c2cc(=O)c3c(O)cc(OCC(N)=O)cc3o2)cc1 [Compound 11, 2-(4-(7-(2-amino-2-oxoethoxy)-5-hydroxy-4-oxo-4H-chromen-2-yl)phenoxy)acetamide]
5 | 12.51% and 12.51 ± 0.02% | 18.01% and 18.01 ± 0.26% | 30.51% and 30.51 ± 0.27% | 47.1 µM | NC(=O)COc1cc(O)c2c(=O)cc(-c3ccc(OCC(N)=O)c(OCC(N)=O)c3)oc2c1 [Compound 15, 2,2′-((4-(7-(2-amino-2-oxoethoxy)-5-hydroxy-4-oxo-4H-chromen-2-yl)-1,2-phenylene)bis(oxy))diacetamide]
